Assay results as given in patent US6331287A, “2'-deoxy-2'-fluoro-d-arabinofuranosyl pyrimidine nucleoside” (University Advanced Bio-imaging Associates, priority 1998, dated 2001).
Entries after “also recorded” stand apart in the source; their conditions may differ. Like-named read-outs stand apart in the source and are kept apart here.

What was measured:
[1] = cited from earlier work
thymidine incorporation = settings: read-out: ED50 for inhibition of thymidine incorporation; cited from earlier work
mammalian kinases = settings: relative to thymidine, cell culture systems; cited from earlier work
viral kinases = settings: relative to thymidine, cell culture systems; cited from earlier work
[2] = dogs, cited from earlier work
[3] = patients, Phase I; cited from earlier work
[4] = dogs; cited from earlier work
host DNA = settings: cited from earlier work
[5] = system: organs with rapidly dividing cells such as the small intestine and spleen; settings: rats; cited from earlier work
PC12 cells = settings: in culture; cited from earlier work
Vero cells = settings: in culture; cited from earlier work
[6] = mice, cited from earlier work
[7] = rats, cited from earlier work
[8] = Plasma clearance of [^11 C]FMAU or [^11 C]TdR after intravenous bolus in dogs (FIG. 1); format: in vivo; settings: dog; for plasma clearance: intravenous
[9] = HPLC analysis of plasma samples for radiolabeled metabolites in dogs; format: in vivo; settings: dog, FMAU over 90 minutes
[10] = system: brain tumor (gliosarcoma); settings: dogs not infected by herpes simplex virus, PET
[11] = Storage stability of compound 2; format: physicochemical; settings: after flash chromatography, anhydrous conditions
Method: After purification by flash chromatography compound 2 could be stored at room temperature for at least 10 months under anhydrous conditions. Its melting point was broad due to the fact that a mixture of four diastereomers were probably present. Treatment of compound 2 with n-butyllithium (2.5 equivalent) produced the dianion 3 in situ which was treated with either unlabeled or [^11 C]-methyl iodide to produce the methylated product 4. The major by-product in the methylation reaction was the dehalogenated compound 5. The ratio of the desired product to the by-product was 43:57, as determined by ^1 HNMR integration of the C6 hydrogen. Deprotection of the tetrahydropyranyl ether produced the desired compound FMAU in 82% chemical yield.

[12] = intravenous, through 24 hours, HPLC
[13] = intravenous bolus 20-25 mCi, 50-100 Ci/mmol, two components of approximately equal amplitudes

Which “dehalogenation / deiodination in vivo” value [1] does the source give for `O=c1[nH]c(=O)n([C@@H]2O[C@H](CO)[C@@H](O)[C@@H]2F)cc1I` [FIAU, 2'-Fluoro-5-iodo-1-β-D-arabinofuranosyluracil] here?
The value was “deiodination followed by methylation at the 5 position of the base also can occur prior to DNA incorporation”.

What does the source list for `Cc1cn([C@@H]2O[C@H](CO)[C@@H](O)[C@@H]2F)c(=O)[nH]c1=O` [FMAU, 2'-fluoro-5-methyl-1-β-D-arabinofuranosyluracil]?
IC50 (thymidine incorporation): 8 to 28 µM; phosphorylation by mammalian kinases (mammalian kinases): phosphorylated by mammalian kinases to levels approaching that of thymidine; also recorded: good substrate relative to thymidine; phosphorylation by viral kinases (viral kinases): good substrate relative to thymidine; glucuronide adduct of FMAU among trace metabolites ([2]; urine, present in all three species): most abundant in dogs; dose above which significant dose-limiting neurotoxicity developed [3]: above 8 mg/m^2×5 days; LD10 [4]: 25 mg/m^2×10 days

What does the source list for `Cc1cn([C@@H]2O[C@H](CO)[C@@H](O)[C@@H]2F)[14c](=O)[nH]c1=O` [[2-^14 C]-FMAU]?
incorporation into host DNA (host DNA): substantial incorporation; accumulation in small intestine and spleen [5]: preferentially observed; accumulation in proliferating PC12 cells (PC12 cells): preferentially observed; accumulation in proliferating Vero cells (Vero cells): preferentially observed; composition of urine radioactivity [6, 12]: primarily of unchanged parent compound; injected radioactivity cleared into the urine ([6]; intravenous): Nearly all; four minor metabolites, share of total urine radioactivity ([6]; urine at 24 hr): < 15%; composition of urine radioactivity [7, 12]: primarily of unchanged parent compound; injected radioactivity cleared into the urine ([7]; intravenous): Nearly all; four minor metabolites, share of total urine radioactivity ([7]; urine at 24 hr): < 5%; composition of urine radioactivity [2, 12]: primarily of unchanged parent compound; injected radioactivity cleared into the urine ([2]; intravenous): Nearly all; four minor metabolites, share of total urine radioactivity ([2]; urine at 24 hr): less than 3%

Which plasma clearance [8] does the source give for `[11CH3]c1cn([C@@H]2O[C@H](CO)[C@@H](O)[C@@H]2F)c(=O)[nH]c1=O` [[^11 C]FMAU, 2'-fluoro-5-[^11 C-methyl]-1-β-D-arabinofuranosyluracil] here?
Its plasma clearance is “rapid plasma clearance”.

And the “half time of first exponential component of plasma activity concentration curve” value [8, 13]?
The value was 2.4 min.

What about the “half time of second exponential component of plasma activity concentration curve” value [8, 13] of the same molecule?
The value was 63 min.

What about the plasma clearance ([8]; listed as [^11 C] FMAU) of the same molecule?
The plasma clearance was “rapid clearance”.

What about the “radiolabeled metabolites in plasma” value [9] of the same molecule?
The value was “no radiolabeled metabolites”.

And the “localization in brain tumor / tumor visualization” value [10]?
The value was “localized selectively within the proliferating cells of brain tumors, but not in normal brain cells; also recorded: the tumor was well visualized; also recorded: accumulated within brain tumor cells that were not infected with herpes simplex virus”.

Which plasma clearance [8] does the source give for `[11CH3]c1cn([C@H]2CC(O)[C@@H](CO)O2)c(=O)[nH]c1=O` (stereo partly shown) [[^11 C]TdR] here?
The plasma clearance was “rapid plasma clearance”.

What about the “radiolabeled metabolites in plasma” value [9] of the same molecule?
The value was “progressive rise in radiolabeled metabolites”.

With `Nc1nc(=O)n([C@@H]2O[C@H](CO)[C@@H](O)[C@@H]2F)cc1[125I]` [[^125 I] labeled FIAC, [^125 I]2'-fluoro-5-iodo-1-β-D-arabinofuranosyl-cytosine] as the molecule, how does the “dehalogenation / deiodination in vivo” value [1] read?
The value was “extensive deiodination in vivo”.

Which “storage stability at room temperature” value [11] does the source give for `O=c1[nH]c(=O)n([C@@H]2O[C@H](COC3CCCCO3)[C@@H](OC3CCCCO3)[C@@H]2F)cc1I` (stereo partly drawn) [compound 2, 3', 5'-O-bis-(tetrahydropyranyl)-2'-fluoro-5-iodo-1-β-D-arabino-furanosyluracil] here?
The value was “at least 10 months”.

Which “dehalogenation / deiodination in vivo” value [1] does the source give for `O=c1[nH]c(=O)n([C@H]2C[C@H](O)[C@@H](CO)O2)cc1[131I]` [radioiodinated IUdR] here?
The value was “significant dehalogenation”.
